According to patent US20030215817A1, “Modulation of gene expression in formation of fatty atherosclerotic lesions” (priority 2003, published 2003):
Counter-ions that a name gives are not always drawn.

Assays:
[1] = system: Rec1_1 (MspI AAGC 288) mRNA; assay: quantified RT-PCR, Rec1_1; assay type: in vivo, rabbit; settings: for Relative Abundance Rec1_1, 20 pg F: hypercholesterolemic plus lercanidipine racemate, eight weeks, H2 (normocholesterolemic)=1.0
Description: (§1) Nineteen of the isolated DST clones were further validated using RT-PCR analyses; the data are presented in FIGS. 6-24 and in Tables 5-23, below. For each DST examined, the optimal annealing temperature and reagent conditions were determined for the corresponding set of primers (see Table 25) based on results from a preliminary experiment. In eight separate reactions, each set of primers was assayed to find the optimal conditions by adjusting the following four parameters: primer concentration, dNTP concentration, MgCl2 concentration, and number of Taq polymerase units. Once optimal conditions were determined, each DST was run in duplicate multiple simultaneous reactions which usually included at least four dilutions of template (cDNA library), plus control reactions lacking template, and six sequential data points for numbers of cycles.
(§2) Reactions were performed using “Hot Start” PCR with the Clontech TaqStart antibody system (Cat. #5400-1). Each reaction contained 1 ml of the cDNA library dilution as template, determined amounts of AmpliTaq DNA polymerase (cat. #N808-0156), MgCl2, dNTPs (GibcoBRL cat. #10297-018), primer, and Clontech TaqStart Antibody in a 20 ml final reaction volume using 10×Taq buffer II (without MgCl2). Typically, a master mix containing all components except the template was prepared and aliquoted. Various templates were then added to these master mix samples and 20 ml volumes were subsequently dispensed into individual reaction tubes. At various times during the PCR run, tubes were removed sequentially on a predetermined schedule in order to quantitate expression of the target DST over a “window” of cycle times. After amplification, the samples were quantified via fluorimetry.
(§3) PCR was performed at annealing temperatures that were five degrees above the average melting temperature of each primer pair. For primers greater than 10 bases (in a 0.05M salt solution), melting temperature was calculated using the following formula: Tm=59.9+41[% GC]−[675/Primer Length], where %GC is the decimal value. Following determination of the average melting temperature of the primer pair, the annealing temperature was determined by adding five degrees to the average melting temperature. PCR was performed using the following program: 1) 95 degrees Celsius, 3 minutes; 2) 95 degrees Celsius, 30 seconds; 3) TM+5 degrees Celsius, 30 seconds; 4) 72 degrees Celsius, for a time dependent on target length at 16 bp/second; 5) repeat steps 2-4 33 more cycles; 6) 72 degrees Celsius, 3 minutes; 7) 14 degrees Celsius, forever.
(§4) Following temperature cycling, 2 ml of the PCR reaction was added to 140 ml of a 1:280 dilution of PicoGreen (Molecular Probes cat. #P-11495 (10×100 ml)) in TE pH 7.5 in a 96-well Costar UV microtiter plate (Fisher cat. #07-200623). The samples were mixed gently for 1.5 minutes and allowed to equilibrate at room temperature in the dark for 15 minutes. The concentration of the PCR products was quantified by fluorimetry using a PerSeptive Biosystems CytoFluor series 4000 multi-well plate reader.
(§5) Background fluorescence was determined by using duplicate control samples that were cycled with all reaction components except the template. The mean value from these duplicate background control samples was subtracted from the corresponding experimental values prior to analyzing results. The sensitivity of the PicoGreen dsDNA assay is reported to be 250 pg/ml (50 pg dsDNA in a […] assay volume) using a fluorescence microplate reader such as was used in these measurements.
DST clone Rec1—1 was one of the clones further evaluated by RT-PCR. The TOGA analysis of clone Rec1—1, identified as MspI AAGC 288, is discussed above and illustrated in FIGS. 1 and 2. The results of the quantified RT-PCR for Rec1—1 are shown in FIG. 6 and in Table 5 (normalized to the normocholesterolemic control value (“H2”) at each time point). […]

LDL = settings: Soma et al. 1998; cited from earlier work
REC1_16 (TCGG 195) mRNA = assay: quantified RT-PCR, Rec1_16; assay type: in vivo, rabbit; settings: for Relative Abundance Rec1_16, 20 pg F: hypercholesterolemic plus lercanidipine racemate, eight weeks, H2 (normocholesterolemic)=1.0
Description: as §1, §2, §3, §4
Background fluorescence was determined by using duplicate control samples that were cycled with all reaction components except the template. […] The sensitivity of the PicoGreen dsDNA assay is reported to be 250 pg/ml (50 pg dsDNA in a […] assay volume) using a fluorescence microplate reader such as was used in these measurements. […]

smooth muscle cell = settings: in vitro (Corsini et al. 1996); cited from earlier work
Rec1_24 (CCGG 232) mRNA = assay: quantified RT-PCR, Rec1_24; assay type: in vivo, rabbit; settings: for Relative Abundance Rec1_24, 100 pg D: hypercholesterolemic plus lercanidipine R (−), eight weeks, H2 (normocholesterolemic)=1.0
Description: as §1, §2, §3, §4, §5
FIG. 23 is a graphical representation of the results of RT-PCR using 100 pg of clone REC1—24 template, in which the amount of PCR product (measured in arbitrary fluorescence units) is plotted against number of cycles, where polyA enriched mRNA was extracted from aortas of rabbits that were normocholesterolemic (filled diamonds, “H2”) and hypercholesterolemic plus lercanidipine R (−), eight weeks (filled squares, “D”).

## COC(=O)C1=C(C)NC(C)=C(C(=O)OC(C)(C)CN(C)CCC(c2ccccc2)c2ccccc2)C1c1cccc([N+](=O)[O-])c1 (racemic) [lercanidipine, lercanidipine hydrochloride]
[1]; cycle 26
  Relative Abundance Rec1_1, 20 pg F: 7.7
[1]; cycle 28
  Relative Abundance Rec1_1, 20 pg F: 4.9
[1]; cycle 30
  Relative Abundance Rec1_1, 20 pg F: 3.2
[1]; cycle 32
  Relative Abundance Rec1_1, 20 pg F: 2.1
[1]; cycle 34
  Relative Abundance Rec1_1, 20 pg F: 1.5
[1]; hypercholesterolemic animals receiving lercanidipine racemate
  expression of Rec1_1 at 8 weeks (RT-PCR study), in words: elevated
LDL
  antioxidant for LDL in endothelial cell-mediated oxidation: act as an antioxidant
REC1_16 (TCGG 195) mRNA; cycle 28
  Relative Abundance Rec1_16, 20 pg F: 0.0
REC1_16 (TCGG 195) mRNA; cycle 30
  Relative Abundance Rec1_16, 20 pg F: 0.2
REC1_16 (TCGG 195) mRNA; cycle 32
  Relative Abundance Rec1_16, 20 pg F: 0.6
REC1_16 (TCGG 195) mRNA; cycle 34
  Relative Abundance Rec1_16, 20 pg F: 0.3
REC1_16 (TCGG 195) mRNA; hypercholesterolemic animals receiving lercanidipine
  expression of Rec1_16 at 8 weeks (RT-PCR study), in words: decreased
Smooth muscle cell
  smooth muscle cell migration and proliferation: effectively reduce

## COC(=O)C1=C(C)NC(C)=C(C(=O)OC(C)(C)CN(C)CCC(c2ccccc2)c2ccccc2)[C@@H]1c1cccc([N+](=O)[O-])c1.Cl (single isomer, unassigned) [(R)-lercanidipine]
Rec1_24 (CCGG 232) mRNA; cycle 24
  Relative Abundance Rec1_24, 100 pg D: 0.3
Rec1_24 (CCGG 232) mRNA; cycle 26
  Relative Abundance Rec1_24, 100 pg D: 0.5
Rec1_24 (CCGG 232) mRNA; cycle 28
  Relative Abundance Rec1_24, 100 pg D: 0.7
Rec1_24 (CCGG 232) mRNA; cycle 30
  Relative Abundance Rec1_24, 100 pg D: 0.9
Rec1_24 (CCGG 232) mRNA; cycle 32
  Relative Abundance Rec1_24, 100 pg D: 0.9
Rec1_24 (CCGG 232) mRNA; cycle 34
  Relative Abundance Rec1_24, 100 pg D: 1.1
Rec1_24 (CCGG 232) mRNA; hypercholesterolemic animals receiving lercanidipine R (−) compared to normocholesterolemic animals
  expression of Rec1_24 at 8 weeks (RT-PCR study), in words: generally somewhat decreased
